Results reported in PMC6078708 (Neuropharmacology, 2018).
Read-outs that look alike come from different tables or passages of the source.

Assays:
[1] = target: α7/5-HT3AR chimera (extracellular domain of human α7 nAChR fused to transmembrane and C-terminal domain of mouse 5-HT3AR) (UniProt P23979+P36544, M226I/T225I); details: for effect on response evoked by maximal agonist concentration: compound 100 μM, 3 mM ACh
Protocol: (§1) Site-directed mutagenesis was performed using the QuikChange mutagenesis kit (Agilent Technologies) and verified by nucleotide sequencing (Source Bioscience).
(§2) Heterologous expression was achieved by cytoplasmic injection of in vitro transcribed cRNA. Prior to in vitro synthesis of cRNA plasmid cDNA was linearized by restriction enzyme digestion and purified with QIAQuik PCR purification kit (Qiagen). In vitro synthesis of cRNA was performed using mMessage mMachine SP6 and T7 transcription kits (ThermoFisher Scientific). Oocytes were injected with approximately 9 ng cRNA using a Drummond variable volume microinjector. […] Experiments were performed on oocytes after 3–5 days of incubation. […] Application of compounds was controlled by LabChart software (AD Instruments) using a BPS-8 solenoid valve solution exchange system (ALA Scientific Inc). Allosteric modulators were pre-applied for 30 s before co-application with agonist.
(§3) Data are presented as means ± SEM of at least three independent experiments, that were conducted on separate oocytes. For multiple comparisons, statistical significance was determined with an unpaired one-way analysis of variance (ANOVA). Post-hoc analysis was performed with a Tukey multiple comparison test. For individual comparisons, statistical significance was determined using unpaired t-tests.

mouse 5-HT3AR = target: T1, mouse 5-HT3AR (Mus musculus, UniProt P23979); details: for response evoked by maximal agonist concentration in presence of compound: compound 100 μM, 30 μM 5-HT
T1 sequence (P23979 24-489): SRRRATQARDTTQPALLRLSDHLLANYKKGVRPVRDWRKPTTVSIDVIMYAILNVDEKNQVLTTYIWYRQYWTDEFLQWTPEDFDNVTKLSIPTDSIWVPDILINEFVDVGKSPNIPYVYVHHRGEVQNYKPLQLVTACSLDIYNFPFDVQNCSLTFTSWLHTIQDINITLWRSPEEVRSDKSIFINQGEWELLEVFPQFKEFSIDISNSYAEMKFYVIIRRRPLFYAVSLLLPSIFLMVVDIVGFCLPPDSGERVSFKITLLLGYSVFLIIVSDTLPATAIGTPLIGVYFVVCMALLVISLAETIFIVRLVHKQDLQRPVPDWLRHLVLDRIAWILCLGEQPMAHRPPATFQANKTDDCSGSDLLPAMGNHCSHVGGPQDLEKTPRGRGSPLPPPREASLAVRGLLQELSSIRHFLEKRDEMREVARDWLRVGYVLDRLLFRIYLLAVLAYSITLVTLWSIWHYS
Protocol: as §1, §2, §3

human α7 nAChR = target: T2, human α7 nAChR (Homo sapiens, UniProt P36544); assay: Two-electrode voltage-clamp recording of wild-type human α7 nAChR expressed in Xenopus oocytes; assay type: cell-based; details: for nature of antagonism against a range of ACh concentrations / response evoked by maximal agonist concentration in presence of compound: compound 100 μM; for response evoked by maximal agonist concentration in presence of compound: 3 mM ACh; for response to an EC50 concentration of ACh, % of the control response: compound 1 mM, ACh 100 μM; for effect when applied alone: no ACh; for activity at 100 µM: read-out: normalised response to EC50 ACh in presence of compound
T2 construct: expressed in transfected cells; host or cells: Xenopus laevis oocytes, injected with in vitro transcribed cRNA
T2 sequence (P36544 23-502): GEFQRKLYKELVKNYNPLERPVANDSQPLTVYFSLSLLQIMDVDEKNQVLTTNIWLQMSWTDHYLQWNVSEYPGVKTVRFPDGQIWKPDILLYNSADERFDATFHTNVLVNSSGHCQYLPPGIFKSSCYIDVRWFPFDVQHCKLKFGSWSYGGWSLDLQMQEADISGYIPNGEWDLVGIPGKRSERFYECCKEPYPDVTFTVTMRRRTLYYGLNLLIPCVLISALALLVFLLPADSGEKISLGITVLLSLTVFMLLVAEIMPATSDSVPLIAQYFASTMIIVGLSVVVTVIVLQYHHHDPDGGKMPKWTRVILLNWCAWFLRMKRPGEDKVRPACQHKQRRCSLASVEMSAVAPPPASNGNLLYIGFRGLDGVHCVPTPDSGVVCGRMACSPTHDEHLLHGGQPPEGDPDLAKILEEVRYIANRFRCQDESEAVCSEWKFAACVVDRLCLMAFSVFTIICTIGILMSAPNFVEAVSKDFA
Protocol: as §2, with “Allosteric modulators were pre-applied for 30 s before co-application with agonist.” left out
as §3

α7 nAChR M260L = target: T3, α7 nAChR M260L (Homo sapiens, UniProt P36544, M283L); assay: Two-electrode voltage-clamp recording of mutated α7 nAChR (M260L) in Xenopus oocytes; assay type: cell-based; details: for activity at 100 µM: read-out: normalised response to EC50 ACh in presence of compound
T3 construct: expressed in transfected cells; host or cells: Xenopus laevis oocytes, injected with in vitro transcribed cRNA
T3 sequence (P36544 23-502 M283L): as the sequence (P36544 23-502) above, with M261L counted along it
Protocol: as §1, §2, §3

α7 nAChR L247A = target: T4, α7 nAChR L247A (Homo sapiens, UniProt P36544, L247A/L270A); assay: Two-electrode voltage-clamp recording of mutated α7 nAChR (L247A) in Xenopus oocytes; assay type: cell-based
T4 construct: expressed in transfected cells; host or cells: Xenopus laevis oocytes, injected with in vitro transcribed cRNA
T4 sequence (P36544 23-502 L247A/L270A): as the sequence (P36544 23-502) above, with L225A, L248A counted along it
Protocol: as §1, §2, §3

α7 nAChR T288A = α7 nAChR T288A (Homo sapiens, UniProt P36544, T311A); assay: cell-based
Chain of α7 nAChR T288A (P36544 23-502 T311A): as the sequence (P36544 23-502) above, with T289A counted along it
Protocol: as §1, §2, §3

α7 nAChR S248A = α7 nAChR S248A (Homo sapiens, UniProt P36544, S271A); assay: cell-based
Chain of α7 nAChR S248A (P36544 23-502 S271A): as the sequence (P36544 23-502) above, with S249A counted along it
Protocol: as §1, §2, §3

α7 nAChR S222M = target: T5, α7 nAChR S222M (Homo sapiens, UniProt P36544, S245M); assay: Two-electrode voltage-clamp recording of mutated α7 nAChR (S222M) in Xenopus oocytes; assay type: cell-based
T5 construct: expressed in transfected cells; host or cells: Xenopus laevis oocytes, injected with in vitro transcribed cRNA
T5 sequence (P36544 23-502 S245M): as the sequence (P36544 23-502) above, with S223M counted along it
Protocol: as §1, §2, §3

[2] = co-application only, no pre-application
[3] = read-out: normalised response to EC50 ACh in presence of compound
[4] = furosemide 1 mM, EC50 agonist (100 μM ACh)
[5] = furosemide 1 mM, maximal agonist (3 mM ACh)
[6] = furosemide 1 mM, EC50 ACh (100 μM)

Chain of α7/5-HT3AR chimera (extracellular domain of human α7 nAChR fused to transmembrane and C-terminal domain of mouse 5-HT3AR) (P36544+P23979 fused P36544:T225I/P36544:M226I): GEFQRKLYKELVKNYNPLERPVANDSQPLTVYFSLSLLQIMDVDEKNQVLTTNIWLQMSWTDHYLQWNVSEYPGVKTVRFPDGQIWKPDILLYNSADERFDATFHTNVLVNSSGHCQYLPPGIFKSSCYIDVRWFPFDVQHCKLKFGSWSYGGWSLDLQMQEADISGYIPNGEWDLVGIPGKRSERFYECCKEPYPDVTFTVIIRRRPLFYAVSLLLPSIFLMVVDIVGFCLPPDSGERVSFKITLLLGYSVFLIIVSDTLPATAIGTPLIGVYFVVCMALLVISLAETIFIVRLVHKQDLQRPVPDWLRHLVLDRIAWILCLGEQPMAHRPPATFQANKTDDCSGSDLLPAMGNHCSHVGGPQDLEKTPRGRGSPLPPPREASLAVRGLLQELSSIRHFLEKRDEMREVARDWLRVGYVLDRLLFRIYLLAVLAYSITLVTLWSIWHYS

## Cc1cc(C)[n+](CCc2ccc(S(N)(=O)=O)cc2)c(C)c1 [DB04763, 1-N-(4-sulfamoylphenyl-ethyl)-2,4,6-tri methyl p yr id i ni u m]
[1]
  effect on response evoked by maximal agonist concentration: not significantly different to their effects on 5-HT3ARs
Mouse 5-HT3AR
  response evoked by maximal agonist concentration in presence of compound: 92.1 ± 1.7%
Human α7 nAChR
  type of allosteric modulation: NAMs
  nature of antagonism against a range of ACh concentrations: non-surmountable
  response evoked by maximal agonist concentration in presence of compound: 20.0 ± 1.3%
  response to an EC50 concentration of ACh, % of the control response: 3.4 ± 0.9%
  activity at 100 µM: 20.1 ± 3.1%
Human α7 nAChR; [2]
  antagonism in the absence of pre-application: significant antagonism
Human α7 nAChR; compound alone
  effect when applied alone: None of the three compounds had any significant effect when applied alone
Human α7 nAChR; read-out: IC50 for inhibition of agonist-evoked responses
  IC50: 46.4 ± 2.2 µM
α7 nAChR M260L
  activity at 100 µM: 30.1 ± 2.4%
α7 nAChR L247A; [3]
  activity at 100 µM: 52.4 ± 0.8%

## CNS(=O)(=O)c1ccc(N/C=C2\C(=O)Nc3ccccc32)cc1 [DB08122, N-methyl-4-{[(2-oxo-1,2-dihydro-3h-indol-3-ylidene)methyl]amino}b en z en esul fon ami de]
[1]
  effect on response evoked by maximal agonist concentration: not significantly different to their effects on 5-HT3ARs
Mouse 5-HT3AR
  response evoked by maximal agonist concentration in presence of compound: did not cause significant inhibition
Human α7 nAChR
  IC50: 1700 ± 300 µM
  type of allosteric modulation: NAMs
  nature of antagonism against a range of ACh concentrations: non-surmountable
  response evoked by maximal agonist concentration in presence of compound: 76.0 ± 4.8%
  response to an EC50 concentration of ACh, % of the control response: 60.6 ± 1.2%
  activity at 100 µM: 90.6 ± 1.8%
Human α7 nAChR; [2]
  antagonism in the absence of pre-application: significant antagonism
Human α7 nAChR; compound alone
  effect when applied alone: None of the three compounds had any significant effect when applied alone
α7 nAChR M260L
  activity at 100 µM: 101 ± 3.1%
α7 nAChR T288A; [3]
  activity at 100 µM: 65 ± 1.2%
α7 nAChR S248A; [3]
  activity at 100 µM: 99.6 ± 1.6%
α7 nAChR S222M; [3]
  activity at 100 µM: 77.2 ± 3.7%

## NS(=O)(=O)c1cc(C(=O)O)c(NCc2ccco2)cc1Cl [furosemide, Furosemide]
[1]; [4]
  agonist-evoked response in presence of furosemide: 98.2 ± 3.4%
[1]; [5]
  agonist-evoked response in presence of furosemide (potentiation): 108 ± 2%
Mouse 5-HT3AR; compound alone, no 5-HT
  agonist effect when applied alone: no agonist effect
Mouse 5-HT3AR; furosemide 1 mM, EC50 agonist (1 μM 5-HT)
  agonist-evoked response in presence of furosemide: 93.9 ± 3.7%
Mouse 5-HT3AR; furosemide 1 mM, maximal agonist (30 μM 5-HT)
  agonist-evoked response in presence of furosemide (potentiation): 108 ± 2%
Human α7 nAChR
  type of allosteric modulation: type I PAM
Human α7 nAChR; [2]
  potentiation of ACh responses in the absence of pre-application: no significant potentiation
Human α7 nAChR; furosemide 1 mM
  maximum level of potentiation of ACh responses: 1.6 ± 0.1 fold
  effect when applied alone: no effect
Human α7 nAChR; [4]
  agonist-evoked response in presence of furosemide (potentiation): 136 ± 7%
Human α7 nAChR; [5]
  agonist-evoked response in presence of furosemide (potentiation): 149 ± 6%
Human α7 nAChR; read-out: EC50 for potentiation of agonist-evoked responses
  EC50: 200 ± 40 µM
α7 nAChR M260L; [6]
  agonist-evoked response in presence of furosemide, of the control response: 63 ± 8%
α7 nAChR T288A; [6]
  ACh-evoked response in presence of furosemide, relative to control response: 99.2 ± 1.2%
α7 nAChR S248A; [6]
  ACh-evoked response in presence of furosemide, relative to control response: 102 ± 5.6%
α7 nAChR L247A; furosemide 1 mM, EC50 ACh (10 μM)
  ACh-evoked response in presence of furosemide, relative to control response: 99.9 ± 4.3%
α7 nAChR S222M; [6]
  potentiation of an EC50 concentration of ACh by furosemide: 244 ± 25%
